Data taken from patent US20240415809A1, “PHARMACEUTICAL COMBINATIONS” (ZYDUS LIFESCIENCES LIMITED, priority 2021, published 2024).

Experiments:
Type in all cases: in vivo
[1] = system: DSS induced ulcerative colitis in C57 mice; test: Apremilast and Rifaximin alone and in combination in DSS induced ulcerative colitis in C57 mice (Example 7); conditions: for % change in DAI vs DSS vehicle control / % change in bleeding score vs DSS vehicle control / The rectal bleeding score, Day-6 / The disease activity index (DAI) score, Day-6: Day-6, Rifaximin 19 mg/kg p.o., Apremilast 12.5 mg/kg p.o., alone or combined, once a day for six days; for The disease activity index (DAI) score, Day-6: 2.5% DSS; for improvement in disease activity index (DAI) score: Example 7, Apremilast human equivalent mice dose, low dose of Rifaximin
Excerpt: (§1) In this study, we have used human equivalent mice dose of Apremilast and very ( 1/18th-fold) low dose of Rifaximin in animal model, which is DSS (Dextran sulfate sodium) induced ulcerative colitis in C57 mice (Br J Pharmacol. 2019 July; 176 (13): 2209-2226. doi: 10.1111/bph.14667. Epub 2019 May 17). The colitis induced by DSS, presents good reproducibility and also mimics clinical symptoms, inflammatory markers and histopathological features which is similar to IBD in humans (Cell Mol Gastroenterol Hepatol. 2015 Mar. 1; 1 (2): 154-170. doi: 10.1016/j.jcmgh.2015.01.006., Arq Gastroenterol. 2014 April-June; 51 (2): 107-12. doi: 10.1590/s0004-28032014000200007. PMID: 25003261).
(§2) C57 mice of 10-12 weeks age were used for this study. On the day of study initiation (day-0) animals were randomized based on their body weight in to different treatment groups as below:
(§3) On day-0 animals were randomized based on body weight and from the same day onwards animals were administered with 2.5% DSS in RO water along with the test compounds till day-6.
(§4) The test compounds were formulated in Tween 80 and 0.5% Na. CMC in (0.5:99.50%) ratio and oral administration was done once a day for six days. During the duration of the experiment, a disease activity index (DAI) score was assessed to evaluate the clinical progression of ulcerative colitis. The DAI was calculated by grading on a scale of 0-5 using the following parameters: loss of body weight (0=normal; 1=0-5%; 2=6-10%; 3=11-15%; 4=16-20%, 5=>20%), stool consistency (0=normal; 1=soft stools; 2=loose stools; 3=watery diarrhea) and rectal bleeding (0=none; 2=presence of hemoccult; 4=severe bleeding). (Ref: Cytokine 2014, 66, 30-39).
(§5) On the day of termination (Day-6), DAI score was assessed followed by nonfasted blood collection. Then animals were sacrificed and relevant tissues were collected in 10% formalin for histological analysis or snap frozen in liquid nitrogen for other assays.
(§6) With the help of MS Excel, percent change vs disease control (DSS vehicle control) in various parameters were calculated and statistical analysis was performed using graph pad prism software.

[2] = system: DSS induced ulcerative colitis in C57 mice; test: Apremilast and Rifaximin alone and as fixed dose combination (FDC) in DSS induced ulcerative colitis in C57 mice (Example 8); conditions: for % change in DAI vs DSS vehicle control / % change in bleeding score vs DSS vehicle control / The rectal bleeding score, Day-6 / The disease activity index (DAI) score, Day-6: Day-6, Rifaximin 102.8 mg/kg p.o. BID, Apremilast 2.1 mg/kg p.o. BID, alone or combined; for The disease activity index (DAI) score, Day-6: six days, 2.5% DSS; for improvement in disease activity index (DAI) score / improvement in rectal bleeding: Example 8, Apremilast equivalent to 10 mg, Rifaximin equivalent to 500 mg human dose
Procedure: In this study, we have used Apremilast which is equivalent to 10 mg of human dose and Rifaximin which is equivalent to 500 mg of human dose in animal model, which is DSS (Dextran sulfate sodium) induced ulcerative colitis in C57 mice (Br J Pharmacol. 2019 July; 176 (13): 2209-2226. doi: 10.1111/bph.14667. Epub 2019 May 17). The colitis induced by
C57 mice of 9-10 weeks age were used for this study. On the day of study initiation (day-0) animals were randomized based on their body weight in to different treatment groups as below:
On day-0 animals were randomized based on body weight and from the same day onwards animals were administered with 2.5% DSS in RO water along with the test compounds till day-6. The test compounds were formulated in Tween 80 and 0.5% Na. CMC in (0.5:99.50%) ratio and oral administration was done twice a day for six days. During the duration of the experiment, a disease activity index (DAI) score was assessed to evaluate the clinical progression of ulcerative colitis.
The DAI was calculated by grading on a scale of 0-5 using the following parameters: loss of body weight (0=normal; 1=0-5%; 2=6-10%; 3=11-15%; 4=16-20%, 5=>20%), stool consistency (0=normal; 1=soft stools; 2=loose stools; 3=watery diarrhea) and rectal bleeding (0=none; 2=presence of hemoccult; 4=severe bleeding). (Ref: Cytokine 2014, 66, 30-39).
as §5, §6

[3] = system: DSS induced ulcerative colitis in C57 mice; test: ADD ON effect of FDC with Mesalamine in DSS induced ulcerative colitis in C57 mice (Example 10)
Procedure: as §1, with “To study the ADD ON effect of FDC (combination” for “In this study, we have used human equivalent mice dose”, “Apremilast equivalent to 15 mg” for “Apremilast”, “Rifaximin equivalent to 500 mg of human dose) with mesalamine equivalent to 800 mg of human” for “very ( 1/18th-fold) low”, “dose” for “dose of Rifaximin”
as §2, §3
as §4, with “twice” for “once”
On the day of termination (Day-6), DAI score was assessed followed by nonfasted blood collection. Then animals were sacrificed, colon length was measured and then collected in 10% formalin for histological analysis or snap frozen in liquid nitrogen for other assays.
With the help of MS Excel, percent change vs disease control (DSS vehicle control) in various parameters were calculated and statistical analysis was performed using graph pad prism software. Percentage improvement of colon length was calculated by calculating the decrease in colon length due to disease from water vehicle control group and then improvement in colon length against DSS vehicle control group by considering the colon length of water vehicle control group as 100%.

[4] = Day-6, Mesalamine 164.4 mg/kg p.o. BID, FDC = Rifaximin 102.8 mg/kg + Apremilast 3.1 mg/kg p.o. BID

Row | SMILES | % change in DAI vs DSS vehicle control [1] | % change in bleeding score vs DSS vehicle control [1] | The rectal bleeding score, Day-6 [1] | The disease activity index (DAI) score, Day-6 [1] | improvement in disease activity index (DAI) score [1] | % change in DAI vs DSS vehicle control [2] | % change in bleeding score vs DSS vehicle control [2] | The rectal bleeding score, Day-6 [2] | The disease activity index (DAI) score, Day-6 [2] | improvement in disease activity index (DAI) score [2] | improvement in rectal bleeding [2] | % change in DAI vs DSS vehicle control [3, 4] | % improvement in colon length vs DSS vehicle control [3, 4] | The Colon length, Day-6 [3, 4] | The disease activity index (DAI) score, Day-6 ([3]; Day-6, Mesalamine 164.4 mg/kg p.o. BID, FDC = Rifaximin 102.8 mg/kg + Apremilast 3.1 mg/kg p.o. BID, six days) | improvement in disease activity index (DAI) score ([3]; Mesalamine equivalent to 800 mg, FDC = Apremilast equivalent to 15 mg and Rifaximin equivalent to 500 mg of human dose)
1 | CO[C@H]1/C=C/O[C@@]2(C)Oc3c(C)c(O)c4c(O)c(c5c(nc6cc(C)ccn65)c4c3C2=O)NC(=O)/C(C)=C\C=C\[C@H](C)[C@H](O)[C@@H](C)[C@@H](O)[C@@H](C)[C@H](OC(C)=O)[C@@H]1C [Rifaximin] | −3.3 ± 11.8% | −39.3 ± 16.9% | 1.7 ± 0.5 | 5.9 ± 0.7 | didn't show any improvement | −17.9 ± 11.2% | −16.7 ± 21.5% | 2.0 ± 0.5 | 6.4 ± 0.9 | 18% | 17% | – | – | – | – | –
2 | CCOc1cc(C(CS(C)(=O)=O)N2C(=O)c3cccc(NC(C)=O)c3C2=O)ccc1OC (single isomer, unassigned; (+)) [Apremilast, (+)-2-[1-(3-ethoxy-4-methoxyphenyl)-2-methylsulfonylethyl]-4-acetylaminoisoindoline-1,3-dione] | −32.8 ± 16.7% | −57.1 ± 21.8% | 1.2 ± 0.6 | 4.1 ± 1.0 | 32.8% | −11.5 ± 9.5% | −16.7 ± 17.6% | 2.0 ± 0.4 | 6.9 ± 0.7 | 12% | 17% | – | – | – | – | –
3 | Nc1ccc(O)c(C(=O)O)c1 [Mesalamine] | – | – | – | – | – | – | – | – | – | – | – | −40.2 ± 5.0% | 39.3 ± 11.0% | 6.3 ± 0.2 cm | 3.1 ± 0.3 | 40%
